Assay results as given in article PMC5225183, “Fingerprinting of neurotoxic compounds using a mouse embryonic stem cell dual luminescence reporter assay” (Archives of Toxicology, 2016).
Where two headings read alike, the source gives them in different places. Marks after values point to notes of the source that are not given here.

Experiments:
CGR8-2Luc ESCs = details: undifferentiated ESCs, 48 h exposure, PI assay (cytotoxicity)
Summary of the method: (§1)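 Mouse CGR8-2Luc ESCs in LIF-containing medium were exposed to compounds for 48 h; ESC-derived neurons (MS5 co-culture, replated day 5 in N2/bFGF medium) were exposed from day 6 to day 8. Read-outs: Tα1-FLuc, EF1α-RLuc and PI DNA content as % of control. LOAEL = lowest concentration giving a significant decrease versus baseline.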

ESC-derived neurons = details: ESC-derived neurons, 48 h exposure, PI assay (cytotoxicity)
Summary of the method: as §1

EF1α promoter = details: for LOAEL ESC EF1α: undifferentiated ESCs
Summary of the method: (§2)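 Mouse CGR8 ESCs carrying Tα1-firefly and EF1α-Renilla luciferase reporters, treated either undifferentiated (48 h exposure after 24 h plating) or as MS5-induced neurons (exposure day 6 to day 8). Dual-luciferase luminescence expressed as % promoter activity versus DMSO control wells; 5 µM methylmercury as positive control.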

[1] = system: Tubulin α1 (Tα1) promoter; details: for LOAEL ESC Tα1: undifferentiated ESCs, 48 h exposure, lowest tested concentration with statistically significant decrease
Summary of the method: as §2

[2] = Table S1, three classes; ref per compound in the footnotes of Table S1; cited from earlier work
[3] = system: undifferentiated pluripotent stem cells (ESCs); assay: Dual luminescence reporter test system, undifferentiated ESCs (readout not separated); format: cell-based, mouse; details: for In vitro EC20 in ESC: in vitro toxicity data expressed as EC20; for effect on promoter activities in undifferentiated cells: non-cytotoxic concentrations
Source text: Fig. 1 Synopsis of experimental protocols. The impact of compounds on neural promoter activity (FLuc, Firefly Luciferase under the control of the Tα1 promoter), general promoter activity (RLuc, Renilla Luciferase under the control of the EF1α promoter), and amount of DNA (PI, propidium iodide fluorescence in cell homogenates) was investigated in undifferentiated mouse embryonic pluripotent stem cells (ESCs) and on ESC-derived neurons. Arrows indicate the time of measurement of the three parameters. a Protocol for testing compounds effects on ESCs. CGR8-2Luc cells were plated on gelatin-coated 96-well plates in maintenance medium (BHK21 medium containing 10 % FCS, L-glutamine, NEAA, P/S, and LIF). Twenty-four hours later, cells were exposed to compounds for forty-eight hours. b Protocol for testing compounds on ESC-derived neurons. CGR8-2Luc cells were co-cultured with MS5 cells to induce neural differentiation in DMEM medium containing 15 % KO-serum, NEAA, β-mercaptoethanol, and P/S. On day 5, cells were detached and seeded on polyornithine-coated plates in DMEM medium containing N2 supplement, bFGF, and P/S; compound exposure was from day 6 to day 8
To test compounds on ESC-derived neurons, neuronal differentiation was carried out as previously described (Suter et al. [2009]; Xu et al. [2014]). Briefly, CGR8-2Luc cells were seeded on irradiated bone marrow-derived stromal MS5 cells and cultivated for 4 days in DMEM medium containing 15 % Knock-out™ Serum Replacement, non-essential amino acids, beta-mercaptoethanol, and penicillin/streptomycin. At day 5, cells were then re-plated (3 × 10^5 cells/cm^2) on polyornithine-coated 96-well plates in N2 medium containing DMEM, N2 supplement, penicillin/streptomycin, and 10 ng/ml basic human fibroblast growth factor (bFGF) (Invitrogen). […] To assess toxicity of compounds on undifferentiated pluripotent stem cells (ESCs), CGR8-2Luc cells were plated at 45,000 cells/cm^2 on 0.1 % gelatin-coated dishes in BHK21 medium, supplemented with 10 % fetal calf serum, L-glutamine, non-essential amino acids, penicillin/streptomycin, and leukemia inhibitory factor (LIF). After 24 h, compounds were added and incubated for 48 h, before luciferase expression and PI fluorescence were analyzed. In all experiments, methylmercury was used as a positive control at a concentration of 5 µM.
Luciferase activities were measured with a Dual-Luciferase™ Reporter system kit. CGR8-2Luc ES cells were lysed in 96-well plates according to the manufacturer’s instructions. Luminescence measurements were performed on a Fluostar Optima reader. Luminescence counts were expressed as percentage of promoter activity normalized by comparison with the control wells treated by DMSO. […] parameters were measured in homogenates of ESCs and in ESC-derived neurons: (1) FLuc, reflecting the activity of early neural promoter Tα1. FLuc increases during neuronal differentiation. Many neurotoxic compounds may affect FLuc expression, either through impact on neuronal differentiation, through changes of neuronal gene expression, or through killing of neurons.
After measurement of luciferase activity, DNA quantity was determined by PI assay, as previously described (Xu et al. [2014]). PI was added to cell homogenates after the luciferase test, at a final concentration of 50 µg/ml and incubated for 2 h. After incubation, fluorescence intensity was measured on a Flexstation 3 microplate reader (Excitation: 544 nm ± 15 nm; Emission: 620 nm ± 15 nm). Results are expressed as percentage of control. Propidium iodide (PI) measures total DNA content as an approximation of the cell number.

[4] = cited from earlier work
[5] = ESC-derived neurons, 48 h exposure

Compound	LOAEL ESC DNA (CGR8-2Luc ESCs) [µM]	LOAEL Neurons DNA (ESC-derived neurons) [µM]	LOAEL Neurons EF1α (EF1α promoter; [5]) [µM]	LOAEL ESC EF1α (EF1α promoter; 48 h exposure) [µM]	LOAEL ESC Tα1 [1] [µM]	class based on clinical evidence for neurotoxicity [2]	In vitro EC20 in ESC [3] [µM]	Concentration in humans ([4]; ref Zimmer et al. ([2014]))	effect on promoter activities in undifferentiated cells [3]	Concentration in humans ([4]; ref Wei et al. ([2014]))	effect on general promoter activity in neurons (EF1α promoter)	LOAEL Neurons EF1α (EF1α promoter; mouse, 48 h) [µM]	effect on neural promoter activity in ESCs [1]	Concentration in humans ([4]; ref Krug et al. ([2013b]))
C[C@]12CC[C@H](O)CC1=CC[C@@H]1[C@@H]2CC[C@]2(C)C(c3cccnc3)=CC[C@@H]12 [Abiraterone]	>2	>2	2	>2	>2	Possibly (developmental)	2	0.65^k µM	–	–	–	–	–	–
O=C(/C=C/c1cccc(S(=O)(=O)Nc2ccccc2)c1)NO [Belinostat]	0.5	50	50	5	5	Possibly (developmental)	–	–	enhanced the activities of neuronal and/or general promoters	0.36^f µM	–	–	–	–
Nc1ccccc1NC(=O)c1ccc(CNC(=O)OCc2cccnc2)cc1 [Entinostat]	5	50	>50	5	50	–	–	–	enhanced the activities of neuronal and/or general promoters	–	enhanced	–	–	–
COC1=C2C[C@@H](C)C[C@H](OC)[C@H](O)[C@@H](C)/C=C(\C)[C@H](OC(N)=O)[C@@H](OC)/C=C\C=C(/C)C(=O)NC(=CC1=O)C2=O [Geldanamycin]	0.05	0.05	0.05	0.5	0.005	Possibly (developmental)	0.01	0.8^k µM	–	–	–	–	–	–
C/C(O)=C(\C#N)C(=O)Nc1ccc(C(F)(F)F)cc1 [Teriflunomide]	>50	>50	–	>50	>50	–	4 to 40	10.8^k µM	–	–	–	>50	increase	–
CCCC(CCC)C(=O)O [Valproic acid]	5000	5000	5000	5000	5000	Well-established (developmental)	–	–	enhanced the activities of neuronal and/or general promoters	–	–	–	–	500–1000^e µM
